Results on 18 compounds are retold here after ChEMBL document CHEMBL2040761, “Design, synthesis, and evaluation of indanone derivatives as acetylcholinesterase inhibitors and metal-chelating agents” (Bioorg Med Chem Lett, 2012).

The source made the active and inactive calls. No cut-off for these calls is given here.

One assay deals with Cholinesterase (Equus caballus, UniProt P81908).
In the next assay the target is Acetylcholinesterase (Electrophorus electricus, UniProt O42275).
The target in assay [1] is Acetylcholinesterase (Electrophorus electricus) (UniProt O42275). Briefly: Ratio of tacrine IC50 to compound IC50 for electric eel acetylcholine esterase.
Assay [2] shares this target. Briefly: Ratio of donepezil IC50 to compound IC50 for electric eel acetylcholine esterase.
For assay [3] the target is unchanged. Briefly: Mixed-type inhibition of electric eel acetylcholine esterase using acetylcholine chloride as substrate at 0.001 to 0.003 uM incubated for 15 mins by Lineweaver Burk plot analysis.

Sequence of Cholinesterase (P81908 whole entry): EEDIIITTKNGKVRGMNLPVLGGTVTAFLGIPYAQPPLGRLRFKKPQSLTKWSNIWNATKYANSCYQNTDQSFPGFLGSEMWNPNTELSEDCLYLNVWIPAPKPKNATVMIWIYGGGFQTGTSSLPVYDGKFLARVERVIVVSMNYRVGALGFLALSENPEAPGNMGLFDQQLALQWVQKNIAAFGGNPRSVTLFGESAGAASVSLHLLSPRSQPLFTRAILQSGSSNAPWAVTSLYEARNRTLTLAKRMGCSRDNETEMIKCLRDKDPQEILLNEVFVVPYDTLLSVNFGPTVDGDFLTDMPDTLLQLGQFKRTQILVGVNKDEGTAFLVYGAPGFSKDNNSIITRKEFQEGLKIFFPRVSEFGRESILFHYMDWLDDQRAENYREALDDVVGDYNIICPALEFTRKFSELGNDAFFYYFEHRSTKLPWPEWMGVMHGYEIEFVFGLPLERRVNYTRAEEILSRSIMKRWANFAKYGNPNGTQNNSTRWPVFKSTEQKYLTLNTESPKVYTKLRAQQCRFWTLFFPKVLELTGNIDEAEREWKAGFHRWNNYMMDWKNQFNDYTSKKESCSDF
Sequence of Acetylcholinesterase (O42275 whole entry): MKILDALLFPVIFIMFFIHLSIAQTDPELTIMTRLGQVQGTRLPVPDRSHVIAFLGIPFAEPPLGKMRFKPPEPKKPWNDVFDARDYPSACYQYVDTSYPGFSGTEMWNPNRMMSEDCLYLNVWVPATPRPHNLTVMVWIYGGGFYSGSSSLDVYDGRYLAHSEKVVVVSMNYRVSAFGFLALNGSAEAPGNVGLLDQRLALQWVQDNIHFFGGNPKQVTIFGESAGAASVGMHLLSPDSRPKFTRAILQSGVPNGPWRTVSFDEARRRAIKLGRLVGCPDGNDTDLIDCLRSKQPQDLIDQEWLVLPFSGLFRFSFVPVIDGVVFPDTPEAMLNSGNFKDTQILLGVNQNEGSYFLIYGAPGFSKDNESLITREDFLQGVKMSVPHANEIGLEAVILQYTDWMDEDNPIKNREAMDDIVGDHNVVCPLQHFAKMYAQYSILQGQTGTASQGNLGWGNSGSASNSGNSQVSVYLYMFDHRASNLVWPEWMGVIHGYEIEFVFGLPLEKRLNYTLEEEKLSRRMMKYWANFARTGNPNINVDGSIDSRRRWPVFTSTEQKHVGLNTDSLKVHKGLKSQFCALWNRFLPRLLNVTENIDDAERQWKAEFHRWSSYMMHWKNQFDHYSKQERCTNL
Sequence of Acetylcholinesterase (Electrophorus electricus) (O42275 24-633 limits assumed): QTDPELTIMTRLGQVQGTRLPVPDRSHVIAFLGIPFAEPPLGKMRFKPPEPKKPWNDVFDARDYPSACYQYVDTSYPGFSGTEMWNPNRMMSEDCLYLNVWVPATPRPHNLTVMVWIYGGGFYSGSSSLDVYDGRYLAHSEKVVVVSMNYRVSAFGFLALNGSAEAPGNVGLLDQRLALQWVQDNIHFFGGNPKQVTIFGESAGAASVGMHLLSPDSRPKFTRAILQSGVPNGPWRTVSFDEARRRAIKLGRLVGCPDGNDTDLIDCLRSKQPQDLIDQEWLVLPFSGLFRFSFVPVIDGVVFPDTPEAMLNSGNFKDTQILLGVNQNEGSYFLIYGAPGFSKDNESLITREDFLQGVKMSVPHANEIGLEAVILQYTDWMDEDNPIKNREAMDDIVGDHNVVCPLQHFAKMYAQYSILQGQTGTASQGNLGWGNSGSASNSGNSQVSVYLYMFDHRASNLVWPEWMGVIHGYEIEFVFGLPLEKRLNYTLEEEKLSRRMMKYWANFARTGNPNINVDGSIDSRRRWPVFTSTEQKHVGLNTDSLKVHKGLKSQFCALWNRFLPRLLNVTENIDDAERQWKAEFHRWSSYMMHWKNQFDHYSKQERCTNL

On to `COc1cc2c(cc1OCCCCN1CCCC1)C(=O)/C(=C\c1ccncc1)C2`, for which the IC50 at Cholinesterase was determined as 17.5 µM; against Acetylcholinesterase it was 0.156 µM.

As for `COc1cc2c(cc1OCCCCN1CCCCC1)C(=O)/C(=C\c1ccncc1)C2`, the IC50 at Cholinesterase amounted to 13.8 µM; against Acetylcholinesterase it was 0.081 µM.

On to `COc1cc2c(cc1OCCCCCCCCCN1CCCCC1)C(=O)/C(=C\c1ccncc1)C2`, for which the half-maximal inhibitory concentration (IC50) was 1.24 µM against Cholinesterase and 0.734 µM against Acetylcholinesterase.

For the compound `COc1cc2c(cc1OCCN1CCCCC1)C(=O)CC2`, the 50% inhibitory concentration (IC50) was 137 µM at Cholinesterase and 3.11 µM at Acetylcholinesterase.

With `COc1cc2c(cc1OCCCCCCN1CCCCC1)C(=O)/C(=C\c1ccncc1)C2`, the 50% inhibitory concentration (IC50) was 4.47 µM against Cholinesterase and 0.232 µM on Acetylcholinesterase.

Take `COc1cc2c(cc1OCCCN1CCCCC1)C(=O)/C(=C\c1ccncc1)C2`: the figures for the IC50 at Cholinesterase and at Acetylcholinesterase were 42.7 µM and 0.062 µM, respectively.

On to `COc1cc2c(cc1OCCN1CCCCC1)C(=O)C(Cc1ccccc1)C2` (centres undefined), for which the IC50 worked out at 9.2 µM against Cholinesterase and 1.27 µM against Acetylcholinesterase.

For the compound `COc1cc2c(cc1OCCCN1CCCCC1)C(=O)CC2`, the 50% inhibitory concentration (IC50) on Cholinesterase worked out at 32.9 µM; against Acetylcholinesterase, 0.916 µM.

Turning to `COc1cc2c(cc1OCCCCCCn1ccnc1)C(=O)/C(=C\c1ccncc1)C2`, the results for the half-maximal inhibitory concentration (IC50) against Cholinesterase and on Acetylcholinesterase were 18.5 µM and 2.87 µM, respectively.

On to `CCN(CC)CCCCOc1cc2c(cc1OC)C/C(=C/c1ccncc1)C2=O`, for which the IC50 was found to be 28.9 µM at Cholinesterase and 0.205 µM at Acetylcholinesterase.

For `COc1cc2c(cc1OCCN1CCCCC1)C(=O)/C(=C\c1ccncc1)C2`, the results for the Ratio IC50 in assay [1] and in assay [2] were 47 and 14, respectively. Also, the figures for the IC50 against Cholinesterase and on Acetylcholinesterase were 9.5 µM and 0.0018 µM, respectively. The inhibition result in assay [3] was “Active”.

With `COc1cc2c(cc1OCCN1CCCCC1)C(=O)/C(=C\c1ccccn1)C2`, the figures for the half-maximal inhibitory concentration (IC50) on Cholinesterase and on Acetylcholinesterase were 7.48 µM and 0.0044 µM, respectively.

As to `COc1cc2c(cc1OCCCCCN1CCCCC1)C(=O)CC2`, the 50% inhibitory concentration (IC50) at Cholinesterase is 115 µM; against Acetylcholinesterase it was 0.361 µM.

For `COc1cc2c(cc1OCCN1CCCCC1)C(=O)/C(=C\c1ccccc1)C2`, the 50% inhibitory concentration (IC50) turned out to be 2.24 µM at Cholinesterase and 0.0091 µM on Acetylcholinesterase.

As for `COc1cc2c(cc1OCCCCCN1CCCCC1)C(=O)/C(=C\c1ccncc1)C2`, the concentration for half-maximal inhibition (IC50) against Cholinesterase was 9.15 µM; against Acetylcholinesterase, 0.288 µM.

Regarding `CCN(CC)CCCCCCOc1cc2c(cc1OC)C/C(=C/c1ccncc1)C2=O`, the IC50 is 13.4 µM against Cholinesterase and 0.271 µM at Acetylcholinesterase.

Regarding `COc1cc2c(cc1O)C(=O)/C(=C\c1ccncc1)C2`, the IC50 on Cholinesterase was determined as 247 µM; against Acetylcholinesterase it was 49.6 µM.

On to `COc1cc2c(cc1O)C(=O)CC2`, for which the figures for the concentration for half-maximal inhibition (IC50) at Cholinesterase and against Acetylcholinesterase were 258 µM and 92 µM, respectively.

Broadly, the IC50 is the concentration that inhibits the measured activity by half. Read a low IC50 as higher potency.
